Results taken from PMC6515931, “The Efflux Mechanism of Fraxetin-O-Glucuronides in UGT1A9-Transfected HeLa Cells: Identification of Multidrug Resistance-Associated Proteins 3 and 4 (MRP3/4) as the Important Contributors” (Frontiers in Pharmacology, 2019).

Key:
[1] = tested on: HeLa1A9 cells; assay: Glucuronide excretion experiments in HeLa1A9 cells; assay type: cell-based, human; details: fraxetin 5, 10 and 20 μM; HeLa1A9 cells
Experimental: The HeLa1A9 cells were pretreated and incubated with fraxetin solutions as reported previously ([Jiang et al., 2011]). Before assays, the HeLa1A9 cells were washed twice with prewarmed (37°C) Hank’s balanced salt solution (HBSS; pH = 7.4). […] At each time point (30, 60, 90, and 120 min), 200 μL of the culture supernatant from each well was collected as samples, and an equal volume of a loading media was used to replenish each well. Next, the collected samples were each mixed with 100 μL ice-cold acetonitrile. The supernatants were subjected to UHPLC analysis after centrifugation (10 min at 13800 × g).
(§1) In addition, the excretion rate of intracellular glucuronides was calculated using Equ. 2. Fraction metabolized or the fmet value was defined as the fraction of a dose metabolized based on Equ. 3. The fmet value was regarded as the more appropriate parameter to reflect the extent of drug metabolism in intact cells in the presence of a transporter–enzyme interplay.
(§2) (2) Excretion rate=VdC(excretedglucuronide)/dt
(§3) where V is the volume of the incubation medium, C is the excreted cumulative concentration of glucuronides, and t denotes the incubation time. Here, dC(excreted glucuronide)/dt describes the changes in glucuronide levels with time.

[2] = molecular target: T1, MRP4 (Homo sapiens, UniProt O15439); assay: shRNA-mediated partial silencing of MRP4 in HeLa1A9 cells, glucuronide excretion; assay type: cell-based; details: fraxetin 10 μM; for decreased excretion of glucuronide: HeLa1A9 cells
T1 construct: BCRP, MRP1, MRP3, and MRP4 were detected in both wild-type HeLa and HeLa1A9 cells; endogenous in cells
T1 sequence (O15439 1-1325): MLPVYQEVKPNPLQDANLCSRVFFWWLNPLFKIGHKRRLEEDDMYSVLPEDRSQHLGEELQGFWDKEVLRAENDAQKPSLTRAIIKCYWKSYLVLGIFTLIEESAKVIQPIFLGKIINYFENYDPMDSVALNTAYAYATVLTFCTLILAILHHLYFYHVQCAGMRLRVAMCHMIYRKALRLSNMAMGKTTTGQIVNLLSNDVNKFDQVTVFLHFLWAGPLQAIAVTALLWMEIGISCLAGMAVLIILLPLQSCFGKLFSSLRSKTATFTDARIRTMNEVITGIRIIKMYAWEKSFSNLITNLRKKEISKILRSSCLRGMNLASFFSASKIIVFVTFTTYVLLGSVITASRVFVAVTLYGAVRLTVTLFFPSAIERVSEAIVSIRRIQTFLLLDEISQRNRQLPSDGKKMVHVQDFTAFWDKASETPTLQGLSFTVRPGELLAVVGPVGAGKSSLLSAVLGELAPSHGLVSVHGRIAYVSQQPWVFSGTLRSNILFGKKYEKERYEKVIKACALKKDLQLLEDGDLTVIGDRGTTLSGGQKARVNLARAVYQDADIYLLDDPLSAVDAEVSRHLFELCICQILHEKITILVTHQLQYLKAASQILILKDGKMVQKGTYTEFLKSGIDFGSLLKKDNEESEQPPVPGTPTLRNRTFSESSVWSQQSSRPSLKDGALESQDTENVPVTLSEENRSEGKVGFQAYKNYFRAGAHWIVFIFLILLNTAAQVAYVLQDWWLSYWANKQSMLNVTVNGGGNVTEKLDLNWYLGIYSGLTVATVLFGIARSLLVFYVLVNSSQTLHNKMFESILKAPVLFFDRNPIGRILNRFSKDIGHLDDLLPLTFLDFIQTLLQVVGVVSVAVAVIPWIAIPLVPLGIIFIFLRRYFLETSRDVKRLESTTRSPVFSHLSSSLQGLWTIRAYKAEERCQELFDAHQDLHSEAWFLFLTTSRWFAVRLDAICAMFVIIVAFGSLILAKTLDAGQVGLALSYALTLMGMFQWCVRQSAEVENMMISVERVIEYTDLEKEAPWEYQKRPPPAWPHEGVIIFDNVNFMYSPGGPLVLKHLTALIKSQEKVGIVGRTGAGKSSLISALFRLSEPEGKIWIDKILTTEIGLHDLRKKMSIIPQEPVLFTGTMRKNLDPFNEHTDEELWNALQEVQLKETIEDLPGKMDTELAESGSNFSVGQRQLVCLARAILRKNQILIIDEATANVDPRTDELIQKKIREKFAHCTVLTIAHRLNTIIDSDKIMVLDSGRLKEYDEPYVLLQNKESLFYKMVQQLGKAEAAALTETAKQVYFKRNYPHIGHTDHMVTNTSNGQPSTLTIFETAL
Experimental: (§4) The HeLa1A9 cells were pretreated and incubated with fraxetin solutions as reported previously ([Jiang et al., 2011]). Before assays, the HeLa1A9 cells were washed twice with prewarmed (37°C) Hank’s balanced salt solution (HBSS; pH = 7.4). After that, fraxetin (10 μM) dissolved in 2 mL of HBSS was incubated with the HeLa1A9 cells. At each time point (30, 60, 90, and 120 min), 200 μL of the culture supernatant from each well was collected as samples, and an equal volume of a loading media was used to replenish each well. Next, the collected samples were each mixed with 100 μL ice-cold acetonitrile. The supernatants were subjected to UHPLC analysis after centrifugation (10 min at 13800 × g).
(§5) In glucuronide excretion assays, biological inhibition mainly including shRNA-mediated partial silencing of BCRP and MRPs in HeLa cells was usually performed to evaluate the role of each efflux transporter ([Quan et al., 2015]; [Sun et al., 2015]; [Qin et al., 2018a]). Established shRNA_BCRP, shRNA_MRP1, shRNA_MRP3, and shRNA_MRP4 plasmids were […] transfected into HeLa1A9 cells to develop the stably shRNA-transfected cell lines, named HeLa1A9-BCRP-shRNA cells, HeLa1A9-MRP1-shRNA, HeLa1A9-MRP3-shRNA, and HeLa1A9-MRP4-shRNA cells, respectively. After transfection for 2 days, these engineered HeLa1A9 cells were subjected to fraxetin-O-glucuronide excretion experiments. The control scrambled shRNA served as a negative control.
as §1, §2
(§6) (3) fmet=excreted glucuronide+intracellular glucuronide/dosed aglycone
as §3

[3] = molecular target: T2, MRP3 (Homo sapiens, UniProt O15438); assay: shRNA-mediated partial silencing of MRP3 in HeLa1A9 cells, glucuronide excretion; assay type: cell-based; details: fraxetin 10 μM; for decrease in fraction metabolized (fmet; overall cellular glucuronidation) / reduction in excretion rate / reduction in excreted glucuronide: MRP3 knockdown; for reduction in excreted glucuronide: HeLa1A9 cells; for elevation of intracellular glucuronide level: MRP3 silencing
T2 construct: BCRP, MRP1, MRP3, and MRP4 were detected in both wild-type HeLa and HeLa1A9 cells; endogenous in cells
T2 sequence (O15438 whole entry): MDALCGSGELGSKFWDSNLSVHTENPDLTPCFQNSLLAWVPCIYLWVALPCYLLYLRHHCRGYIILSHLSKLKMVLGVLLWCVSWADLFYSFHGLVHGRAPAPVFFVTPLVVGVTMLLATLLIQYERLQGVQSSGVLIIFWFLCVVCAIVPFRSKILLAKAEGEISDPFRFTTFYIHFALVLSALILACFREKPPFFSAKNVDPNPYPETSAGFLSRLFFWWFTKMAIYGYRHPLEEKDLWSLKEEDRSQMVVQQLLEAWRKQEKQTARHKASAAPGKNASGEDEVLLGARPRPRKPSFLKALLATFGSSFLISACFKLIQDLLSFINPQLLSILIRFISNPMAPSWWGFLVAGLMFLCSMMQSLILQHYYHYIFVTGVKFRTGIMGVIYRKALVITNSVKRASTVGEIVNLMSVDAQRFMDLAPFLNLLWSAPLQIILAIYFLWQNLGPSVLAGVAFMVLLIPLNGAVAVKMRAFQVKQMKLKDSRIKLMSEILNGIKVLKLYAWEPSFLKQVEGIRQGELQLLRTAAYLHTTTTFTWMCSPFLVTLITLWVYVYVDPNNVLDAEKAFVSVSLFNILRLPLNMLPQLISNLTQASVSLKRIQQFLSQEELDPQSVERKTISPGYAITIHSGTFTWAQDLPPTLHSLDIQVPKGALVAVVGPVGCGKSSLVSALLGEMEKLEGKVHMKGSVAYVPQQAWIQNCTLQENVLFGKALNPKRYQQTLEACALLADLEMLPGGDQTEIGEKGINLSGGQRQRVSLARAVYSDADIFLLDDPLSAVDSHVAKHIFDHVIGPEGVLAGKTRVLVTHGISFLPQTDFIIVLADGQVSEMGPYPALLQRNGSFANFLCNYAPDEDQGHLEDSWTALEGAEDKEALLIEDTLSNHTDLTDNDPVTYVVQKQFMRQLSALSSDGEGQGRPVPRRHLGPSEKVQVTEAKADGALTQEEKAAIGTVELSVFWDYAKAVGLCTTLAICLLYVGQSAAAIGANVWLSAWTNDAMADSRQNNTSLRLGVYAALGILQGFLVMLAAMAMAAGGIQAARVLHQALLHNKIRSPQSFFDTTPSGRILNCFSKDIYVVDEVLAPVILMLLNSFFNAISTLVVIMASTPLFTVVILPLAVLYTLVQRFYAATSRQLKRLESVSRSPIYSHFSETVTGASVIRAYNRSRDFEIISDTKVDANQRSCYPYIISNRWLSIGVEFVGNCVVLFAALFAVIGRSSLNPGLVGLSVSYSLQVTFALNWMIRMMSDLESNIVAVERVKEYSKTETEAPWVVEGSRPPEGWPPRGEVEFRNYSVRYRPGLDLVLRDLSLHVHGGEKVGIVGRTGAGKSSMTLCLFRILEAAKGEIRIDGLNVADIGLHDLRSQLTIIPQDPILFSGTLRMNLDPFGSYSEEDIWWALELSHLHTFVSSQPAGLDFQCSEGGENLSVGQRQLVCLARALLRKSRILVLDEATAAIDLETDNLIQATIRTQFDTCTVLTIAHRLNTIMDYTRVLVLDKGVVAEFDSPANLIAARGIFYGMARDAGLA
Experimental: as §4, §5, §1, §2, §6, §3

[4] = molecular target: T3, UGT1A9 (Homo sapiens, UniProt O60656)
T3 sequence (O60656 26-530): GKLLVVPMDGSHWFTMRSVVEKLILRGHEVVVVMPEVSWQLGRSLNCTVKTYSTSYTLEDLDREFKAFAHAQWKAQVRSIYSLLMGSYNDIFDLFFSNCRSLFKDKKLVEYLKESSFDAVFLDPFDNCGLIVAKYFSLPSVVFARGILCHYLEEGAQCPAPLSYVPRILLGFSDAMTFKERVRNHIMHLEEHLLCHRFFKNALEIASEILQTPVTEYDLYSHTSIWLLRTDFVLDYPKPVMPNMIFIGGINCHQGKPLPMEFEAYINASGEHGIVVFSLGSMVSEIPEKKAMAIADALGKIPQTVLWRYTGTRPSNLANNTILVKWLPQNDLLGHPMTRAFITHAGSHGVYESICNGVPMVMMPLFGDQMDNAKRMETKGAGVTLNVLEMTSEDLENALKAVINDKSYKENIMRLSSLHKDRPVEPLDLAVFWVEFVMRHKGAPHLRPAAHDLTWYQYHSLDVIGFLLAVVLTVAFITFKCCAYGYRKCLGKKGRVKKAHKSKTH
Experimental: (§7) The incubation system was slightly modified on the basis of a previously published article ([Qin et al., 2018a]). […] After preincubation at 37°C for 5 min, UDPGA (3.5 mM) was added to the reaction system, and the mixture was incubated for another 30 min. These reactions were terminated by the addition of an equal volume of ice-cold acetonitrile. The mixed samples were centrifuged at 13800 × g for 10 min, and the supernatant was analyzed by ultra-high-performance liquid chromatography (UHPLC). All the experiments were conducted in triplicate.
The enzyme kinetic parameters were obtained by fitting appropriate kinetic models to the experimental data in GraphPad Prism V5 software (San Diego, CA, United States). The best model was selected based on visual inspection of the Eadie–Hofstee plots ([Qin et al., 2018b]). In brief, if the Eadie–Hofstee plot was linear, formation rates (V) of glucuronides at different substrate concentrations (C) were fitted to the standard equations (1): […]
Where Km is the Michaelis–Menten constant, and Vmax is the maximum rate of glucuronidation. The intrinsic clearance (CLint) was computed as Vmax/Km.

[5] = molecular target: T3, UGT1A9; assay: Inhibition of fraxetin-O-glucuronide formation by selective UGT1A9 inhibitors; assay type: biochemical; set-up: purchased Corning Biosciences; details: fraxetin 4 and 20 μM; magnolol 1 μM, niflumic acid 10 μM, androsterone 10 μM
Experimental: as §7
(§8) Other detailed operations were the same as described above.

[6] = molecular target: T3, UGT1A9; assay: Effect of Ko143 and MK571 on fraxetin-O-glucuronidation activity of UGT1A9; details: Ko143 20 μM
Experimental: as §7, §8

[7] = molecular target: T4, HeLa1A9 cell lysate (Homo sapiens, UniProt O60656); assay: Effect of Ko143 and MK571 on fraxetin-O-glucuronidation activity of HeLa1A9 cell lysate; assay type: biochemical; details: Ko143 20 μM
T4 sequence (O60656 26-530): T3 sequence (O60656 26-530)
Experimental: as §7, §8

| SMILES | excretion with elevation of the fraxetin concentration [1] | decrease in fraction metabolized (fmet) [2] [%] | elevation of intracellular glucuronide [2] [%] | reduction in excretion rate [2] [%] | decreased excretion of glucuronide [2] | decrease in fraction metabolized (fmet; overall cellular glucuronidation) [3] [%] | reduction in excretion rate [3] [%] | reduction in excreted glucuronide [3] | elevation of intracellular glucuronide level [3] [%] | Km [4] [µM] | effect on formation of G1 and G2 [5] | also measured |
| --- | --- | --- | --- | --- | --- | --- | --- | --- | --- | --- | --- | --- |
| COc1cc2ccc(=O)oc2c(O)c1O[C@@H]1O[C@H](C(=O)O)[C@@H](O)[C@H](O)[C@H]1O [G2, fraxetin-7-O-glucuronide] | markedly increased | 23.1 | 52.4 | 32.3 | 33.0–42.4% | 18.6 | 21.1 | 15.1–31.9% | 45.4 | 8 to 16 |  |  |
| O=C(O)c1cccnc1Nc1cccc(C(F)(F)F)c1 [niflumic acid] |  |  |  |  |  |  |  |  |  |  | significantly inhibited |  |
| C=CCc1ccc(O)c(-c2cc(CC=C)ccc2O)c1 [magnolol] |  |  |  |  |  |  |  |  |  |  | significantly inhibited |  |
| COc1cc2ccc(=O)oc2c(O[C@@H]2O[C@H](C(=O)O)[C@@H](O)[C@H](O)[C@H]2O)c1O [G1, fraxetin-8-O-glucuronide] | markedly increased | 22.7 | 42.0 | 34.8 | 33.6–51.1% | 24.1 | 29.1 | 19.8–39.4% | 30.2 | 8 to 16 |  |  |
| COc1ccc2c3c([nH]c2c1)[C@H](CC(C)C)N1C(=O)[C@H](CCC(=O)OC(C)(C)C)NC(=O)[C@@H]1C3 [Ko143] |  |  |  |  |  |  |  |  |  |  |  | inhibition of fraxetin-O-glucuronidation, G1 [6]: 41.5%; inhibition of fraxetin-O-glucuronidation, G2 [6]: 24.9%; inhibition of fraxetin-O-glucuronidation, G1 [7]: 20.4%; inhibition of fraxetin-O-glucuronidation, G2 [7]: 29.3% |
